Columns and labels:
T-47D = experiment: NCI-60 SRB growth inhibition: T-47D; format: cell-based, human; settings: Breast cancer, 48 hours treatment; for CC50: Homo sapiens, T47D, read-out: LC50 (the source's name)
CSNK1D = target: T1, CSNK1D (Homo sapiens, UniProt P48730); experiment: Kinase binding screening: CSNK1D; settings: 10 μM compound, read-out: B-POC (binding percentage of control)
T1 construct: purchased Ambit Bioscience (assay service)
Description: Biotinylated kinase ligand was immobilized onto streptavidin coated magnetic beads and washed with blocking buffer. The liganded beads were then incubated with DNA-tagged kinase in the presence of test compound for 1 h at room temperature. Binding reactions were carried out in 20% Seablock, 0.17×PBS, 0.005% Tween 20, 6 mM DTT, in a final volume of 0.04 mL. Beads were then washed with wash buffer (PBS, 0.05% Tween 20), and then incubated with elution buffer (PBS, 0.05% Tween […] non-biotinylated kinase ligand) and eluted. The kinase concentration in the eluate was then measured by quantitative PCR. […] The results of this single dose screening are reported in the form of binding percentage of control (B-POC) which is defined as follows:
[formula] The negative control signal is obtained by the vehicle and corresponds to B-POC=100%. The positive signal control is detected by a binding positive compound and is B-POC 0%. The B-POC results are the average of duplicate measurements. Only interactions with […] were considered significant and thus used for calculating the selectivity scores (Table 1) of the test compounds as follows:
[formula] […] The Kd is then calculated according to the following equation:
[formula] hill slope=−1. A non-linear least square fit with the Levenberg-Marquardt algorithm was implemented to fit the curves (FIG. 3). Kinase binding assays were performed by Ambit Bioscience (San Diego, Calif., USA).
The results of kinase binding assay are shown in Table 1, which includes the B-POC values of 10 μM of compounds 4, 15, and 16 against the most sensitive kinases tested within this binding experiment. […] Kinases within the same subfamily are highlighted. […] Both the B-POC and Kd values are the average of duplicate measurements.
J. et al. Bioorganic and Medicinal Chemistry Letters 2009, 19, 1206-1209; Chao, Q. et al. Journal of Medicinal Chemistry 2009, 52, 7808-7816.). A single dose of 10 μM was chosen to allow for detecting kinases able to bind to the test compounds. In this binding assay, a set of 243 kinases were included. […]

SK-MEL-28 = experiment: NCI-60 SRB growth inhibition: SK-MEL-28; format: cell-based, human; settings: SK-MEL-28, Melanoma, 48 hours treatment; for CC50: Homo sapiens, read-out: LC50 (the source's name)
HOP-62 = experiment: NCI-60 SRB growth inhibition: HOP-62; format: cell-based, human; settings: HOP-62, Non-small cell lung cancer; 48 hours treatment
SK-OV-3 = experiment: NCI-60 SRB growth inhibition: SK-OV-3; format: cell-based, human; settings: SK-OV-3, Ovarian cancer; 48 hours treatment
A498 = experiment: NCI-60 SRB growth inhibition: A498; format: cell-based, human; settings: A498, Renal cancer, 48 hours treatment; for CC50: Homo sapiens, read-out: LC50 (the source's name)
M14 = experiment: NCI-60 SRB growth inhibition: M14; format: cell-based, human; settings: M14, Melanoma, 48 hours treatment; for CC50: Homo sapiens, read-out: LC50 (the source's name)
NCI/ADR-RES = experiment: NCI-60 SRB growth inhibition: NCI/ADR-RES; format: cell-based, human; settings: Ovarian cancer, 48 hours treatment; for CC50: Homo sapiens, read-out: LC50 (the source's name)
MDA-MB-435 = experiment: NCI-60 SRB growth inhibition: MDA-MB-435; format: cell-based, human; settings: MDA-MB-435, Melanoma, 48 hours treatment; for CC50: Homo sapiens, read-out: LC50 (the source's name)
OVCAR-4 = experiment: NCI-60 SRB growth inhibition: OVCAR-4; format: cell-based, human; settings: OVCAR-4, Ovarian cancer, 48 hours treatment; for CC50: Homo sapiens, read-out: LC50 (the source's name)
MALME-3M = experiment: NCI-60 SRB growth inhibition: MALME-3M; format: cell-based, human; settings: Melanoma, 48 hours treatment
COLO 205 = experiment: NCI-60 SRB growth inhibition: COLO 205; format: cell-based, human; settings: COLO 205, Colon cancer, 48 hours treatment; for CC50: Homo sapiens, read-out: LC50 (the source's name)
ABL kinase = target: T2, ABL kinase (Homo sapiens, UniProt P00519); experiment: Functional kinase inhibition assay: ABL; format: biochemical; settings: 1 μM compound
T2 construct: purchased Millipore Corp. (Dundee, UK; assay service)
T2 sequence (P00519 whole entry): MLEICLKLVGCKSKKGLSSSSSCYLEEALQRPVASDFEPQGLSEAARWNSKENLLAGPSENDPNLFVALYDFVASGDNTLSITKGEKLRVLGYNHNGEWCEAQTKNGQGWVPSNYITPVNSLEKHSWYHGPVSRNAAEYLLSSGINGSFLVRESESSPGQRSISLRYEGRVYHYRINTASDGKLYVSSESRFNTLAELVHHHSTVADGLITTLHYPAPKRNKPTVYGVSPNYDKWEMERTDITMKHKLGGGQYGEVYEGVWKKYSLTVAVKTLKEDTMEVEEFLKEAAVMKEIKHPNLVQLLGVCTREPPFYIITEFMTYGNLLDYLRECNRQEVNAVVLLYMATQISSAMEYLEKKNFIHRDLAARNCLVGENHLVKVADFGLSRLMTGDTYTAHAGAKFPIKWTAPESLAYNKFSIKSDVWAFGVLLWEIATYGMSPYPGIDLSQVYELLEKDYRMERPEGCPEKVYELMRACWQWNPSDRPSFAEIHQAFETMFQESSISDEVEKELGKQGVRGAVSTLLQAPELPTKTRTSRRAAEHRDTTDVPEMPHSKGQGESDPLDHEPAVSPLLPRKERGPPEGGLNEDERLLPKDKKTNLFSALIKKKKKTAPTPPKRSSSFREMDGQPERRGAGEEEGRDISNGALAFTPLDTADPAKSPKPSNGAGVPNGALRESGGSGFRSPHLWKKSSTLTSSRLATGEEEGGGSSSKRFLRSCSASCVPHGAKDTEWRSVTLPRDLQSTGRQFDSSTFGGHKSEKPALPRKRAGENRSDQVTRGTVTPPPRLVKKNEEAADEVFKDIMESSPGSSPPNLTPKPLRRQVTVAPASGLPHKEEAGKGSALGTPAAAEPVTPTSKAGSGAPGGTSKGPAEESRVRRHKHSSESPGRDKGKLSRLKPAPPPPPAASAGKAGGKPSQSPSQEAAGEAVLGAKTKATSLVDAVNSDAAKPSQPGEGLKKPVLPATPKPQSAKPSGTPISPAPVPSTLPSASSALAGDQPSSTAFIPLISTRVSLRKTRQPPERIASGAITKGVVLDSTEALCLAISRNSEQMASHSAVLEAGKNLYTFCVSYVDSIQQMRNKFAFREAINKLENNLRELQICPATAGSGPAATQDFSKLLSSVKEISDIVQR
Description: [formula] The assay was performed in duplicates.
The results of kinase function inhibition assay are shown in Table 6, including the F-POC of 1 μM of compounds 4, 15, and 16 against the most sensitive kinases tested within this experiment. […] Kinases within the same subfamily are highlighted.

RPMI-8226 = experiment: NCI-60 SRB growth inhibition: RPMI-8226; format: cell-based, human; settings: RPMI-8226, Leukemia, 48 hours treatment; for CC50: Homo sapiens, read-out: LC50 (the source's name)
U251 = experiment: NCI-60 SRB growth inhibition: U251; format: cell-based, human; settings: U251, CNS cancer, 48 hours treatment; for CC50: Homo sapiens, U-251, read-out: LC50 (the source's name)
PC-3 = experiment: NCI-60 SRB growth inhibition: PC-3; format: cell-based, human; settings: PC-3, Prostate cancer; 48 hours treatment
SNB-75 = experiment: NCI-60 SRB growth inhibition: SNB-75; format: cell-based, human; settings: SNB-75, CNS cancer, 48 hours treatment; for CC50: Homo sapiens, read-out: LC50 (the source's name)

T1 sequence (P48730 whole entry): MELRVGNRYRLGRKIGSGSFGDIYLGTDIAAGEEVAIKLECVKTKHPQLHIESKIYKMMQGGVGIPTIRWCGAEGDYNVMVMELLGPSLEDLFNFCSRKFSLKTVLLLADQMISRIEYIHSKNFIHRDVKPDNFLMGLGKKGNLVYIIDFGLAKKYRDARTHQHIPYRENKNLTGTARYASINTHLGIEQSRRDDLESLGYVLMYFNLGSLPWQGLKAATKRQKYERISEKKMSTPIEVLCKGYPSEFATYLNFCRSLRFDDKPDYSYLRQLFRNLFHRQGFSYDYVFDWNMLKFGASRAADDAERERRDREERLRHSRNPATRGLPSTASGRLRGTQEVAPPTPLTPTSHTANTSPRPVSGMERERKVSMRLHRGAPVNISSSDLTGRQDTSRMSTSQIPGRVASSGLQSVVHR

Compound | TGI (T-47D) [µM] | CC50 (T-47D) [µM] | remaining activity at 10 µM (CSNK1D) [%] | CC50 (SK-MEL-28) [µM] | TGI (SK-MEL-28) [µM] | TGI (HOP-62) [µM] | TGI (SK-OV-3) [µM] | TGI (A498) [µM] | CC50 (A498) [µM] | CC50 (M14) [µM] | TGI (M14) [µM] | CC50 (NCI/ADR-RES) [µM] | TGI (NCI/ADR-RES) [µM] | CC50 (MDA-MB-435) [µM] | TGI (MDA-MB-435) [µM] | CC50 (OVCAR-4) [µM] | TGI (OVCAR-4) [µM] | TGI (MALME-3M) [µM] | TGI (COLO 205) [µM] | CC50 (COLO 205) [µM] | other results
c1ccc(Cc2cnc(N3CCN(c4ncnc5ccccc45)CC3)nc2)cc1 [Compound 4, 4-(4-(5-benzylpyrimidin-2-yl)piperazin-1-yl)quinazoline] | 45.50 | > 100 | 26 | > 100 | 99.30 | 51.60 | >100 | 24.20 | 50.1 | 51.6 | 26.30 | 66.4 | 17.60 | 91.4 | 27.50 | > 100 | >100 | 33.60 | >100 | > 100 | inhibitory action over ABL kinase function (ABL kinase): without affecting ABL subfamily members; CC50 (RPMI-8226): 97.3 µM; TGI (RPMI-8226): 21.80 µM; CC50 (U251): 54.1 µM; TGI (U251): 24.60 µM; TGI (PC-3): >100 µM; CC50 (SNB-75): > 100 µM; TGI (SNB-75): 78.20 µM
CCc1cnc(N2CCN(C(=O)c3ccc(CNc4ncnc5ccccc45)cc3)CC2)nc1 [Compound 15, (4-(5-ethylpyrimidin-2-yl)piperazin-1-yl)(4-((quinazolin-4-ylamino)methyl)phenyl)methanone] | >100 | > 100 | 23 | > 100 | >100 | >100 | >100 | >100 | > 100 | 93.7 | 32.70 | > 100 | 21.50 | > 100 | >100 | > 100 | 58.80 | 42.20 | 38.20 | > 100 | inhibitory action over ABL kinase function (ABL kinase): weak inhibitory action; CC50 (RPMI-8226): > 100 µM; TGI (RPMI-8226): 14.30 µM; CC50 (U251): > 100 µM; TGI (U251): >100 µM; TGI (PC-3): >100 µM; CC50 (SNB-75): > 100 µM; TGI (SNB-75): 58.20 µM
O=C(c1cccc(Nc2ncnc3ccccc23)c1)N1CCN(c2ncc(Cc3ccccc3)cn2)CC1 [Compound 16, (4-(5-benzylpyrimidin-2-yl)piperazin-1-yl)(3-(quinazolin-4-ylamino)phenyl)methanone] | 7.59 | 5.62 | 22 | 5.25 | 2.82 | 3.47 | 4.47 | 5.37 | > 100 | 4.68 | 2.14 | > 100 | 8.51 | 4.57 | 2.14 | 7.59 | 1.95 | 2.57 | 2.75 | 5.5 | inhibitory action over ABL kinase function (ABL kinase): weak inhibitory action; CC50 (RPMI-8226): 3.89 µM; TGI (RPMI-8226): 0.60 µM; CC50 (U251): > 100 µM; TGI (U251): 6.61 µM; TGI (PC-3): 2.88 µM; CC50 (SNB-75): > 100 µM; TGI (SNB-75): 5.89 µM

From US8609672B2, “Piperazinylpyrimidine analogues as protein kinase inhibitors” (University of the Pacific, priority 2010, dated 2013)
